Assay results from patent US7803826B2, “Imidazolidine derivatives” (Chugai Seiyaku Kabushiki Kaisha, priority 2004, dated 2010).
Where two headings read alike, the source gives them in different places.

Assays:
human androgen receptor [1] = target: T1, human androgen receptor (Homo sapiens, UniProt P10275); test: Investigation of agonist effects: androgen receptor reporter gene (MMTV-luciferase) assay in 11A11B2 cells; assay type: cell-based; details: compound concentration showing a transcription activity of 5% (0.1 nmol/L DHT = 100%, assay medium alone = 0%), 48 hours
T1 construct: expressed in transfected cells
T1 sequence (P10275 1-920): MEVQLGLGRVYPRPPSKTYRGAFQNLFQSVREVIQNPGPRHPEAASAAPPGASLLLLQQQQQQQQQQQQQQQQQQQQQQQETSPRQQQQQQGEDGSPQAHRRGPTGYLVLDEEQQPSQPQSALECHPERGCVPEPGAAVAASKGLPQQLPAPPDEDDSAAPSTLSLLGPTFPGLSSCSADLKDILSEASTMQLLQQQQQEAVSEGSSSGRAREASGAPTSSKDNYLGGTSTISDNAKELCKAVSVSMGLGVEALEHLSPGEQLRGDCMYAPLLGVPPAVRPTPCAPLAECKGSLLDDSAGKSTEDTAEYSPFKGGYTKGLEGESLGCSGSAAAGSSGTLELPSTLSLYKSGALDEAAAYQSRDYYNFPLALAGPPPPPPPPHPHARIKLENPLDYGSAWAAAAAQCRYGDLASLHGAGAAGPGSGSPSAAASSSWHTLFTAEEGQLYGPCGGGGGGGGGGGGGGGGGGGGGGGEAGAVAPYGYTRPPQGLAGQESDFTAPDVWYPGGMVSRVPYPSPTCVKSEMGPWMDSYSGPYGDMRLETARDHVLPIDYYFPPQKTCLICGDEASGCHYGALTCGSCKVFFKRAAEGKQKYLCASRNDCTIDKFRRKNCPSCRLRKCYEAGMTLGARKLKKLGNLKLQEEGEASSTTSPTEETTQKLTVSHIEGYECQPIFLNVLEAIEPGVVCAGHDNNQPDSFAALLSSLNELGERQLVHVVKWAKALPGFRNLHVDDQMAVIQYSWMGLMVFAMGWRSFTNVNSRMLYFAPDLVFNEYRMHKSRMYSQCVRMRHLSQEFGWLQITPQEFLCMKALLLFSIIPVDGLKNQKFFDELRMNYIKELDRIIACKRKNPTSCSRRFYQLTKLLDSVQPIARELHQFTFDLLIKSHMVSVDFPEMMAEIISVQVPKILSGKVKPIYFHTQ
Experimental: (§1) HeLa cells (purchased from Dai-Nippon Seiyaku K.K.) were cultured overnight in Dulbecco's Modified Eagle Medium containing no phenol red, but containing 3% charcoal-treated fetal bovine serum (hereafter referred to as DCC-FBS) (this medium is hereafter referred to as phenol-red-free DMEM). An MMTV-Luc-Hyg vector (reporter plasmid with mouse mammary tumor virus long terminal repeat as an androgen response element: vector obtained by substituting the chloramphenicol acetyl transferease gene of a GM-CAT vector (A.T.C.C No. 67282) purchased from the A.T.C.C. with the firefly luciferase gene, and inserting a hygromycin resistance gene as a drug resistance gene), and pSG5-hAR-neo (human androgen receptor expression vector: a vector having an androgen receptor gene under the control of the SV40 promoter, and having a neomycin resistance gene inserted as a drug resistance gene) were transfected into the HeLa cells using an FuGENE™ 6 Transfection Reagent (obtained from Roche).
(§2) A clone in which transcription activity was elevated in a dose-dependent manner by dihydrotestosterone was obtained by culturing the transfected cells in DMEM containing 500 μg/mL neomycin, 300 μg/mL hygromycin and 10% fetal bovine serum (hereafter referred to as FBS). The clone cells thus obtained (11A11B2 cells) were maintained and propagated using DMEM containing 400 μg/mL neomycin, 200 μg/mL hygromycin and 10% FBS, and were propagated using phenol-red-free DMEM containing 10% DCC-FBS three to four days prior to the performance of an androgen receptor reporter gene assay.
The 11A11B2 cells were inoculated in a white clear-bottomed 96-well microplate (COSTAR) so that the cell concentration was 1.0×10^4/well, using phenol-red-free DMEM containing 3% DCC-FBS (hereafter referred to as the assay medium), and were cultured overnight. The assay medium containing the compounds of the examples and compounds of the comparative examples were added so that the final concentrations of the compounds of the examples and compounds of the comparative examples were 1, 10, 100, 1,000 and 10,000 nmol/L (however, in the case of the compounds of Examples 1 and 2, the compounds were added so that the final concentrations were […]), and the cells were cultured for 48 hours, after which the transcription activity value was measured. The transcription activity was measured using a Bright-Glo™ Luciferase Assay System (Promega).
(§3) The transcription activity rates of the compounds of the examples were calculated from the transcription activity measured by the abovementioned method, with the transcription activity value obtained at 0.1 nmol/L DHT taken as 100%, and the transcription activity value in the case of the assay medium alone taken as 0%. The compound concentration showing a transcription activity of 5% (EC5 value) was calculated from a linear equation for two points on either side of 5%.

human androgen receptor [2] = target: T1, human androgen receptor; test: Investigation of antagonist effects: androgen receptor reporter gene (MMTV-luciferase) assay in 11A11B2 cells with 0.1 nmol/L DHT; assay type: cell-based
Experimental: as §1, §2
After culturing for 48 hours, the transcription activity values were measured. The transcription activity was measured using a Bright-Glo™ Luciferase Assay System (Promega).
as §3, with “0%.” for “0%. The compound concentration showing a transcription activity of 5% (EC5 value) was calculated from a linear equation for two points on either side of 5%.”
Accordingly, the value obtained by subtracting the transcription activity rate of Test Example 1 (Investigation of Agonist Activity) from the transcription activity rate of Test Example 2 (Investigation of Antagonist Activity) was used to calculate the compound concentration at which a transcription activity of 50% was shown (IC50 value). The IC50 value was calculated from a linear equation for two points on either side of 50%.

castrated rats = details: continuously administered for two weeks; cited from earlier work
[3] = prostate cancer patients treated with flutamide; cited from earlier work
androgen receptor = androgen receptor (Homo sapiens, UniProt P10275); details: at a concentration of 10 μmol/L; cited from earlier work
[4] = 11A11B2 cells, 0.1 nmol/L DHT, 48 hours, agonist transcription activity rate of Test Example 1 subtracted, read-out: IC50

Compound	EC5 (human androgen receptor [1]) [µM]	IC50 (human androgen receptor [2]; [4]) [nM]	further results
CN1C(=S)N(c2ccc(C#N)c(C(F)(F)F)c2)C(=O)C1(C)C [Comparative Example 1, 4-(5-oxo-2-thioxo-3,4,4-trimethyl-1-imidazolidinyl)-2-trifluoromethylbenzonitrile, reference compound]	8e-05	–	–
CC1(C)C(=O)N(c2ccc(C#N)c(Cl)c2)C(=S)N1CCCS(N)(=O)=O [Example 1, 3-[3-(3-chloro-4-cyanophenyl)-5,5-dimethyl-4-oxo-2-thioxoimidazolidin-1-yl]propane-1-sulfonic acid amide]	>10	–	IC50 (human androgen receptor [2]): 200 nM
CC1(C)C(=O)N(c2ccc(C#N)c(Cl)c2)C(=S)N1CCS(N)(=O)=O [Example 28, 2-[3-(3-chloro-4-cyanophenyl)-5,5-dimethyl-4-oxo-2-thioxoimidazolidin-1-yl]ethane-1-sulfonic acid amide]	>10	400	–
CC1(C)C(=O)N(c2ccc(C#N)c(Cl)c2)C(=S)N1CCCCS(N)(=O)=O [Example 26, 4-[3-(3-chloro-4-cyanophenyl)-5,5-dimethyl-4-oxo-2-thioxoimidazolidin-1-yl]butane-1-sulfonic acid amide]	>10	900	–
CC1(C)C(=O)N(c2ccc(C#N)c(Cl)c2)C(=S)N1CCCCCS(N)(=O)=O [Example 27, 5-[3-(3-chloro-4-cyanophenyl)-5,5-dimethyl-4-oxo-2-thioxoimidazolidin-1-yl]pentane-1-sulfonic acid amide]	>10	400	–
CC(=O)O[C@]1(C(C)=O)CC[C@H]2[C@@H]3C=C(Cl)C4=CC(=O)CC[C@]4(C)[C@H]3CC[C@@]21C [chlormadinone acetate]	–	–	weight of the prostate gland (castrated rats): increase
CC(=O)NCCN1C(=S)N(c2ccc(C#N)c(C(F)(F)F)c2)C(=O)C1(C)C [Comparative Example 2, 4-[3′-(2″-N-acetylaminoethyl)-4′,4′-dimethyl-5′-oxo-2′-thioxo-1′-imidazolidinyl]-2-trifluoromethylbenzonitrile, reference compound]	3	–	–
CC(C)(O)C(=O)Nc1ccc([N+](=O)[O-])c(C(F)(F)F)c1 [Comparative Example 4, hydroxyflutamide]	0.01	–	hydroxyflutamide concentration in the blood [3]: several; androgen receptor transcription activity (androgen receptor): increase
CC(=O)O[C@]1(C(C)=O)CC[C@H]2[C@@H]3C=C(Cl)C4=CC(=O)[C@@H]5C[C@@H]5[C@]4(C)[C@H]3CC[C@@]21C [cyproterone acetate]	–	–	weight of the prostate gland (castrated rats): increase
COc1cc(N2C(=O)C(C)(C)N(CCCS(N)(=O)=O)C2=S)ccc1C#N [Example 2, 3-[3-(4-cyano-3-methoxyphenyl)-5,5-dimethyl-4-oxo-2-thioxoimidazolidin-1-yl]propane-1-sulfonic acid amide]	>10	300	–
